Assay results taken from ChEMBL document CHEMBL1148629, “Pyrrolopyridazine MEK inhibitors” (Bioorg Med Chem Lett, 2006).

Columns and labels:
[1] = target: Dual specificity mitogen-activated protein kinase kinase 1 (Homo sapiens, UniProt Q02750); test: Inhibitory activity against MEK
[2] = test system: HT-29; test: Antiproliferative activity against human tumor HT29 cell line; assay type: functional
[3] = test system: COLO 205; test: Antiproliferative activity against human tumor Colo205 cell line; assay type: functional
[4] = target: Vascular endothelial growth factor receptor 2 (Homo sapiens) (UniProt P35968); test: Inhibitory activity against VEGFR2 upto 50 uM
Sequence of Vascular endothelial growth factor receptor 2 (Homo sapiens) (P35968 whole entry): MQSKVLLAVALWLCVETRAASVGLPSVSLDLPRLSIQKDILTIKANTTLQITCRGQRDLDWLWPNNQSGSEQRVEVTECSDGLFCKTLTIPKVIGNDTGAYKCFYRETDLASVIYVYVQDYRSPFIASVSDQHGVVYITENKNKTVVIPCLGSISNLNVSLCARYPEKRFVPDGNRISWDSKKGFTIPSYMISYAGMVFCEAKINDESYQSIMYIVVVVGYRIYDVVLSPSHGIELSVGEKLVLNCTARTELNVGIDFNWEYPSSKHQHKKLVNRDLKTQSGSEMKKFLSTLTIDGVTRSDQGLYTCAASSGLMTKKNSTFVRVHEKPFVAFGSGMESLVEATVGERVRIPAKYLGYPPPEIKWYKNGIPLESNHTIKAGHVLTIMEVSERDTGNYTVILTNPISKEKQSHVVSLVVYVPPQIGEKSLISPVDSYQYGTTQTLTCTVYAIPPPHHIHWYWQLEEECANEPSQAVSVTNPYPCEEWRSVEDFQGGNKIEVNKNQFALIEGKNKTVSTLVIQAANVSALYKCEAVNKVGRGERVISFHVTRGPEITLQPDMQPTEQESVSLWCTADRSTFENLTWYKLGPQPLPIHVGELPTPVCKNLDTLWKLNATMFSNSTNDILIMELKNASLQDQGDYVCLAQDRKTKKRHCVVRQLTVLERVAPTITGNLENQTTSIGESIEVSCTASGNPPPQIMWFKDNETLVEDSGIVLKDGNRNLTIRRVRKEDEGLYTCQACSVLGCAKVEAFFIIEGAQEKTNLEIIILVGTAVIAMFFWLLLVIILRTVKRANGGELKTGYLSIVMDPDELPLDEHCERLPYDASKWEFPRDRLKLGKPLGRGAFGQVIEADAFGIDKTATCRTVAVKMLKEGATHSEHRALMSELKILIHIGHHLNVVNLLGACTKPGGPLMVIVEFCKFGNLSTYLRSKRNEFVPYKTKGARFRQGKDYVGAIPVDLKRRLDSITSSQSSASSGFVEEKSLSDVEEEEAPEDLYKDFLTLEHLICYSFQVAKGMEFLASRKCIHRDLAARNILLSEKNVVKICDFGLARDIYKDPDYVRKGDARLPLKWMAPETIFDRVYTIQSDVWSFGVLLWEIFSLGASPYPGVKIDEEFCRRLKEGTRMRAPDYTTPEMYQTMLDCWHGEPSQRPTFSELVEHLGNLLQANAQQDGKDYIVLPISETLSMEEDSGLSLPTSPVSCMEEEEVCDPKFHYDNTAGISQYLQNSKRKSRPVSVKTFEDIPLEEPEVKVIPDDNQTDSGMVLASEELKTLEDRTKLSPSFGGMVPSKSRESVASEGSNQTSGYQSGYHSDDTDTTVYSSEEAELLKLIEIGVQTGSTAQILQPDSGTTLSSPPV

Sequence of Dual specificity mitogen-activated protein kinase kinase 1 (Q02750 whole entry): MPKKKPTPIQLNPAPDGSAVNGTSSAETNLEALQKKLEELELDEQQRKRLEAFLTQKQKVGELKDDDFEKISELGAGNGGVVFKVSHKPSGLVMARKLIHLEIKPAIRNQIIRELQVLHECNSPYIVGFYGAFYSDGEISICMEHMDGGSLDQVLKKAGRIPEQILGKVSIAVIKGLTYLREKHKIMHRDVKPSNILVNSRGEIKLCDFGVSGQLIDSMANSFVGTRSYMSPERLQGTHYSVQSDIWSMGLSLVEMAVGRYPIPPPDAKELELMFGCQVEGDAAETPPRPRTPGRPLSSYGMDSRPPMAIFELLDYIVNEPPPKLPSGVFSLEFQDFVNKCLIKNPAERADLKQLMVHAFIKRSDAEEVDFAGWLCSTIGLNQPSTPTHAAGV

| IC50 [1] | inhibition [4] | Structure (SMILES) | Activity [2] | Activity [3] |
| --- | --- | --- | --- | --- |
| 2320 nM | – | CCOC(=O)c1cn2ncc(C#N)c(Nc3ccc(Nc4ccccc4)cc3)c2c1C | – | – |
| 203 nM | – | CCOC(=O)c1cn2ncc(C#N)c(Nc3ccc(Oc4ccccc4)cc3)c2c1CO | – | – |
| 68 nM | – | CCOC(=O)c1cn2ncc(C#N)c(Nc3ccc(Cc4ccccc4)cc3)c2c1C | – | – |
| 642 nM | – | CCOC(=O)c1cn2ncc(C#N)c(Nc3ccc(Oc4ccc(Cl)cc4)cc3)c2c1C | – | – |
| 5420 nM | – | CCOC(=O)c1cn2ncc(C#N)c(Oc3ccc(Oc4ccccc4)cc3)c2c1C | – | – |
| 147 nM | – | Cc1c(C(=O)O)cn2ncc(C#N)c(Nc3ccc(Oc4ccccc4)cc3)c12 | – | – |
| 331 nM | – | CCOCc1c(C(=O)OCC)cn2ncc(C#N)c(Nc3ccc(Oc4ccccc4)cc3)c12 | – | – |
| 1110 nM | – | CCOC(=O)c1cn2ncc(C#N)c(Nc3ccc(C(=O)c4ccccc4)cc3)c2c1C | – | – |
| 566 nM | – | CCOC(=O)c1cn2ncc(C#N)c(Nc3ccc(Oc4ccccc4)cc3)c2c1COCCOC | – | – |
| > 25000 nM | – | CCOC(=O)c1cn2ncc(C#N)c(Nc3ccc(OCc4ccccc4)cc3)c2c1C | – | – |
| 190 nM | – | Cc1c(N)cn2ncc(C#N)c(Nc3ccc(Oc4ccccc4)cc3)c12 | – | – |
| > 25000 nM | – | CCOC(=O)c1cn2ncc(C#N)c(NCc3ccc(Oc4ccccc4)cc3)c2c1C | – | – |
| > 25000 nM | – | CCOC(=O)c1cn2ncc(C#N)c(Nc3ccc(-c4ccccc4)cc3)c2c1C | – | – |
| 18 nM | – | CNC(=O)Nc1cn2ncc(C#N)c(Nc3ccc(Oc4ccccc4)cc3)c2c1C | 7.38 µM | – |
| > 25000 nM | – | CCOC(=O)c1cn2ncc(C#N)c(Nc3ccccc3)c2c1C | – | – |

Continued, molecule first:

| Structure (SMILES) | IC50 [1] | inhibition [4] | Activity [2] | Activity [3] |
| --- | --- | --- | --- | --- |
| Cc1c(C(=O)NCCN2CCOCC2)cn2ncc(C#N)c(Nc3ccc(Oc4ccccc4)cc3)c12 | 386 nM | – | – | – |
| Cc1c(NC(=O)c2ccccc2)cn2ncc(C#N)c(Nc3ccc(Oc4ccccc4)cc3)c12 | 42 nM | – | 2.13 µM | 2.42 µM |
| Cc1c(C(=O)O)cn2ncc(CNS(C)(=O)=O)c(Nc3ccc(Oc4ccccc4)cc3)c12 | > 25000 nM | – | – | – |
| CC(=O)Nc1cccc(C(=O)Nc2cn3ncc(C#N)c(Nc4ccc(Oc5ccccc5)cc4)c3c2C)c1 | 14 nM | – | 1.34 µM | 1.86 µM |
| COc1cccc(Oc2ccc(Nc3c(C#N)cnn4cc(NC(=O)OCCN5CCOCC5)c(C)c34)cc2)c1 | 76 nM | – | 2.35 µM | 0.72 µM |
| COc1ccccc1Oc1ccc(Nc2c(C#N)cnn3cc(NC(=O)OCCN4CCOCC4)c(C)c23)cc1 | 48 nM | – | 3.78 µM | 2.06 µM |
| CCOC(=O)c1cn2ncnc(Nc3ccc(Oc4ccccc4)cc3)c2c1C | 3470 nM | – | – | – |
| COc1ccccc1Oc1ccc(Nc2c(C#N)cnn3cc(NC(=O)NCCN4CCOCC4)c(C)c23)cc1 | 24 nM | – | – | – |
| Cc1c(NC(=O)NCCN2CCOCC2)cn2ncc(C#N)c(Nc3ccc(Oc4ccccc4)cc3)c12 | 36 nM | < 5% | 0.86 µM | 3.9 µM |
| Cc1c(NC(=O)OCCN2CCOCC2)cn2ncc(C#N)c(Nc3ccc(Oc4ccccc4)cc3)c12 | 58 nM | < 5% | 3.76 µM | 2.88 µM |
| Cc1c(C(C)(C)O)cn2ncc(C#N)c(Nc3ccc(Oc4ccccc4)cc3)c12 | > 25000 nM | – | – | – |
| Cc1c(C(=O)O)cn2ncc(CN)c(Nc3ccc(Oc4ccccc4)cc3)c12 | > 25000 nM | – | – | – |
| Cc1c(NS(=O)(=O)c2ccccc2)cn2ncc(C#N)c(Nc3ccc(Oc4ccccc4)cc3)c12 | 14600 nM | – | – | – |
| COc1cccc(Oc2ccc(Nc3c(C#N)cnn4cc(NC(=O)NCCN5CCOCC5)c(C)c34)cc2)c1 | 29 nM | – | – | – |
| Cc1c(OCCN2CCOCC2)cn2ncc(C#N)c(Nc3ccc(Oc4ccccc4)cc3)c12 | 521 nM | – | – | – |
| Cc1c(NC(=O)NCCN2CCOCC2)cn2ncc(C#N)c(Nc3ccc(Oc4ccccc4F)cc3)c12 | 33 nM | – | – | – |
| CC(=O)NCc1cnn2cc(C(=O)O)c(C)c2c1Nc1ccc(Oc2ccccc2)cc1 | > 25000 nM | – | – | – |
| Cc1ccn2ncc(C#N)c(Nc3ccc(Oc4ccccc4)cc3)c12 | 241 nM | – | >10 µM | >10 µM |
| COC(=O)Nc1cn2ncc(C#N)c(Nc3ccc(Oc4ccccc4)cc3)c2c1C | 23 nM | – | 7.64 µM | – |
| Cc1c(-c2nc3ccccc3[nH]2)cn2ncc(C#N)c(Nc3ccc(Oc4ccccc4)cc3)c12 | 168 nM | – | – | – |
